Assay results: ChEMBL document CHEMBL1201862, “PubChem BioAssay data set” (2004)
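The compound was tested at five concentrations on cells cultured in 96-well plates, with a 48-hour exposure period. GI50 marks 50% less growth.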 Activity calls are given as the source filed them. Rule as the data show it: active = GI50 up to about 1.1 µM and inactive = higher.

Tests used:
Test in all cases: inhibition of tumour cell growth, NCI panel, 48 h
HOP-62 = tested on: HOP-62
EKVX = tested on: EKVX
RXF 393 = tested on: RXF 393
HCT-116 = tested on: HCT-116
M14 = tested on: M14
TK-10 = tested on: TK-10
HCC 2998 = tested on: HCC 2998
NCI-H460 = tested on: NCI-H460
NCI-H226 = tested on: NCI-H226
MCF7 = tested on: MCF7
OVCAR-4 = tested on: OVCAR-4
T47D = tested on: T47D
K562 = tested on: K562
CAKI-1 = tested on: CAKI-1
SF-539 = tested on: SF-539
SK-MEL-5 = tested on: SK-MEL-5
COLO 205 = tested on: COLO 205
SN12C = tested on: SN12C
SW-620 = tested on: SW-620
HT-29 = tested on: HT-29
A498 = tested on: A498
SK-MEL-28 = tested on: SK-MEL-28
Malme-3M = tested on: Malme-3M
A549 = tested on: A549
SK-MEL-2 = tested on: SK-MEL-2
BT-549 = tested on: BT-549
SF-295 = tested on: SF-295
UACC-257 = tested on: UACC-257
UACC-62 = tested on: UACC-62
HCT-15 = tested on: HCT-15
UO-31 = tested on: UO-31
CCRF-CEM = tested on: CCRF-CEM
SF-268 = tested on: SF-268
SNB-19 = tested on: SNB-19
LOX IMVI = tested on: LOX IMVI
NCI-H522 = tested on: NCI-H522
MDA-N = tested on: MDA-N
SNB-75 = tested on: SNB-75
OVCAR-5 = tested on: OVCAR-5
HL-60 = tested on: HL-60
DU-145 = tested on: DU-145
SK-OV-3 = tested on: SK-OV-3
786-0 = tested on: 786-0
NCI/ADR-RES = tested on: NCI/ADR-RES
KM12 = tested on: KM12
MDA-MB-231 = tested on: MDA-MB-231
PC-3 = tested on: PC-3
IGROV-1 = tested on: IGROV-1
HOP-92 = tested on: HOP-92
NCI-H23 = tested on: NCI-H23
U-251 = tested on: U-251
MDA-MB-435 = tested on: MDA-MB-435
ACHN = tested on: ACHN
OVCAR-8 = tested on: OVCAR-8
RPMI-8226 = tested on: RPMI-8226
OVCAR-3 = tested on: OVCAR-3

Measured: GI50

COC(=O)[C@]1(c2cc3ccccc3[nH]2)CC2CN(CC(=O)N(C)OC)C1CC2(OC)OC (stereo partly specified)
inactive: HOP-62 69.3 µM | EKVX 56.6 µM | RXF 393 33.5 µM | HCT-116 26.9 µM | M14 35.9 µM | TK-10 > 100 µM | HCC 2998 > 100 µM | NCI-H460 55.3 µM | NCI-H226 34.4 µM | MCF7 32.8 µM | OVCAR-4 57.1 µM | T47D 22 µM | K562 24.9 µM | CAKI-1 20.7 µM | SF-539 44.4 µM | SK-MEL-5 40.6 µM | COLO 205 83.6 µM | SN12C 41.2 µM | SW-620 36.4 µM | HT-29 35.2 µM | A498 39.1 µM | SK-MEL-28 > 100 µM | Malme-3M 24.3 µM | A549 47.1 µM | SK-MEL-2 39 µM | BT-549 23.3 µM | SF-295 > 100 µM | UACC-257 71.3 µM | UACC-62 67.8 µM | UO-31 40.2 µM | CCRF-CEM 7.23 µM | SF-268 67.6 µM | SNB-19 > 100 µM | LOX IMVI 37.7 µM | NCI-H522 15.9 µM | MDA-N 33.4 µM | SNB-75 63.8 µM | OVCAR-5 52.2 µM | HL-60 19.4 µM | DU-145 43.5 µM | SK-OV-3 > 100 µM | 786-0 22.2 µM | NCI/ADR-RES 41.2 µM | KM12 31.6 µM | MDA-MB-231 31.9 µM | PC-3 24.2 µM | IGROV-1 48.3 µM | HOP-92 87.5 µM | NCI-H23 36 µM | U-251 16.1 µM | MDA-MB-435 27.5 µM | ACHN 35.1 µM | OVCAR-8 39.3 µM | RPMI-8226 14.7 µM | OVCAR-3 50.6 µM
28.2 µM: HCT-15
